Patent publication US11116778B2, “Prodrugs of ALOX-15 inhibitors and methods of using the same” (EMPIRICO INC., priority 2019, dated 2021)

Experiment: Levels of compound 3 and compound 5 in rabbit nasal lavage and serum after nasal administration of compound 5
Type: in vivo
Conditions: rabbits
Method: Six (6) female NZW rabbits were employed in this study. Rabbits were obtained from Covance (Denver Pa.). Rabbits were between approximately 10 and 12 months of age at the time of study start. At time point 0, all animals received 50 μL of solution containing rabbit IL4 (RND Systems/Biotechne) and human IL13 (PreproTech) at a concentration of 0.25 mg/mL each in 0.5×PBS containing 12.5 mg/mL BSA per nostril. This was administered intranasally via a venous catheter attached to a micropipette. The animal was positioned in a supine manner and the venous catheter inserted into the nostril. The volume was introduced into the nasal cavity and the same procedure was repeated with the other nostril.
At the 2, 4, and 6 hour time points, animals in Group 1 (n=3) received 0.2 mL of vehicle (0.9% saline) per nostril and the animals in Group 2 (n=3) received 0.2 mL of compound 5 (10 mM) in vehicle per nostril. The dosing of vehicle and compound 5 proceed as follows: The animal was positioned in a supine manner in a restraint bag and a mucosal atomization device (MAD) attached to the pre-filled tuberculin syringe was inserted into the nostril and introduced into the nasal cavity. The same procedure was repeated with the other nostril.
At the 8 hour time point, all the nostrils of all animals were lavaged with 1 mL of 0.9% saline per nostril and the resulting fluid collected. Intranasal lavages were performed as follows: The animals were held sternally in a restraint bag with the head over the edge of the table and the rear of the animal elevated higher than the head. A flexible venous catheter was inserted in the nostril until resistance was felt. The 1 mL of saline was introduced through the catheter into the nasal cavity. The nasal lavage returned from the nostril was collected via a funnel into a conical tube and the approximate volume recorded. This procedure was repeated for the other nostril. The lavage was stored at approximately −70° C. until analysis. Following (<10 minutes) the 8 hour time point lavage, blood was collected from all animals, processed to serum, and frozen at approximately −70° C. until analysis.
Nasal lavage and serum samples were analyzed for the levels of compound 3 and compound 5. Frozen tissue samples were weighed (20-120 mg) and placed into 2 mL CK14 homogenizing tubes (Bertin) and 500 μL of methanol containing 1 mM butylated hydroxy toluene (BHT) and 1 mM tris(2-carboxyethyl)phosphine (TCEP) was added. The tubes were placed in a Precellys 24 tissue homogenizer (Bertin) and run at 6000 rpm six times for 20 seconds with a 10 second pause between cycles. The tubes containing the homogenized tissue were then placed in a microfuge and centrifuged for 5′ at 14,000 rpm to pellet any insoluble material. Compound 3 was quantified using LC-MS/MS (QTrap5500, Applied Biosystems). Q1/Q3 Masses: 306.00/135.00 using a deschloro derivative of compound 3 (lacking chlorine at 4 position of pyrazole ring) as an internal standard. The Q1/Q3 Masses are 272.00/101.00 Da for the internal standard. Compound 3 was extracted using liquid/liquid extraction with methanol as a diluent. […] Compound 5 was quantified using LC-MS/MS (QTrap5500, Applied Biosystems). […] Compound 5 was detected in the lavage samples from Group 2 animals (rabbit 1, rabbit 2, rabbit 3) and ranged in average concentration from 0.016 uM-0.35 uM. […]

concentration at 8 h (female, NZW, rabbit, nasal lavage, other: intranasal (mucosal atomization device), 0.2 mL of 10 mM compound 5 per nostril at 2, 4, 6 hours, lavage at 8 hours, range over 3 rabbits, read-out: average concentration of compound 5 in nasal lavage (FIG. 8)): 16 to 350 nM | level in serum samples (intranasal compound 5 10 mM, blood after the 8 hour lavage): no quantifiable
Structure (SMILES): O=C(Nc1ccc(F)cc1Cl)c1nn(COP(=O)(O)O)c(Cl)c1Cl [compound 5, (4,5-dichloro-3-((2-chloro-4-fluorophenyl)carbamoyl)-1H-pyrazol-1-yl)methyl dihydrogen phosphate]
conversion of compound 5 to compound 3 in nasal lavage (FIG. 8) (intranasal compound 5 10 mM, lavage at 8 hours): majority of compound 5 was converted to compound 3
